From PMC6270290, “Synthesis of Bistetrahydroquinolines as Potential Anticholinesterasic Agents by Double Diels-Alder Reactions” (Molecules, 2013)

Target: acetylcholinesterase (AChE) (Electrophorus electricus, UniProt O42275)
Assay: Ellman colorimetric assay, acetylthiocholine hydrolysis
Type: biochemical

acetylcholinesterase (AChE), sequence (O42275 24-633): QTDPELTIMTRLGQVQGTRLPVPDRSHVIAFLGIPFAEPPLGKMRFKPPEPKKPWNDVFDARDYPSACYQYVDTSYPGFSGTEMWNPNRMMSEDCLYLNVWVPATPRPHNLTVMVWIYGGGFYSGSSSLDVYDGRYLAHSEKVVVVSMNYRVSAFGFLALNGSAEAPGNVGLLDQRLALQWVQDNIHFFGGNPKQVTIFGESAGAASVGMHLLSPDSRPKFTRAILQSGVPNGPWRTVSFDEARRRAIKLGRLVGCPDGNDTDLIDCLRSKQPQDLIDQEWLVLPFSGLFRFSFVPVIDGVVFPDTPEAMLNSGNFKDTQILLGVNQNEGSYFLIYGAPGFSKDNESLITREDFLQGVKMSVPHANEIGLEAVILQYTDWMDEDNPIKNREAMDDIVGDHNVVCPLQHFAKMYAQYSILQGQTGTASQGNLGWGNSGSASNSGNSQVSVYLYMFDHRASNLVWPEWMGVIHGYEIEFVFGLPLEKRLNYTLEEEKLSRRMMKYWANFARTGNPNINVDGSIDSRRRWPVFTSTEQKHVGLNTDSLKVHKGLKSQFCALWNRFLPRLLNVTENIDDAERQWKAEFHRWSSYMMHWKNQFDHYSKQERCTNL

Structure (SMILES): COc1ccc2c(c1)C(N1CCCC1=O)CC(c1cccc(C3CC(N4CCCC4=O)c4cc(OC)ccc4N3)c1)N2 (stereo not shown) [5c, 1,3-bis(6'-Methoxy-4'-(2-oxopyrrolidinyl-1)-1',2',3',4'-tetrahydroquinolin-2-yl)benzene]
- IC50: 122 µM
